This is an account of results in PMC7887804 (Chemical Research in Toxicology, 2020).

In general, logP refers to a log measure of how a compound divides between an organic and an aqueous phase. By AC50 is commonly meant the concentration giving half of the maximal activity seen. Broadly, the NOAEL is the highest tested level that showed no adverse finding.

Structures are written as SMILES. Read-outs that look alike come from different tables or passages of the source. Marks after values point to notes of the source that are not given here.

The subject of data set [1] is thyroid peroxidase (TPO). Put plainly: QIVIVE oral equivalent dose related to TPO inhibition. More on the design: species or system human. The conditions noted are these: humans; for oral equivalent dose related to TPO inhibition: Cmax equal to AC50 in NCCT_TPO_AUR_dn; for margin between human exposure and oral equivalent dose related to TPO inhibition: highest exposure estimates.

Data set [2] can be described thus: In vitro metabolism study. The format is in vitro ADME, human. The conditions noted are these: for conversion in incubations with and without the cofactor mix: RLS9 and HLS9, data not shown; for measured concentration at t = 0 lower than the added 1 μM: S9 incubation tubes, suggests binding to the plastic walls; for CLint,u: human (H), CLintapp corrected for the fraction unbound in the incubation; for CLintapp (apparent in vitro intrinsic clearance): human liver S9 (H), 1 μM substrate.

Data set [3] concerns human thyroid peroxidase (TPO). The note with it: ToxCast, cited from earlier work; for activity in the TPO assay: NCCT_TPO_AUR_dn.
The conditions of data set [4]: cited from earlier work.
Data set [5] is described as follows: In vitro metabolism study. The format is in vitro ADME, rat. The note with it: for CLint,u: rat (R), CLintapp corrected for the fraction unbound in the incubation; for CLintapp (apparent in vitro intrinsic clearance): rat liver S9 (R), 1 μM substrate.
The conditions of data set [6]: positive hit calls, ToxCast summary data; cited from earlier work.
For data set [7] the following is noted: cited from earlier work; for pKa: A, acid, ref Tsao [40]; for logP: octanol/water, ref PubChem.
For data set [8] the following is noted: rats, 100 mg/kg bw [14C]-labelled, parent compound in plasma up to 24 h; cited from earlier work.
For data set [9], the system named is thyroid peroxidase (TPO). Put plainly: QIVIVE oral equivalent dose related to TPO inhibition. More on the design: species or system rat. The conditions noted are these: rats, Cmax equal to AC50 in NCCT_TPO_AUR_dn.
The conditions of data set [10]: cited from earlier work. This is another data set of the same source.
The conditions of data set [11]: developmental toxicity study; cited from earlier work.
The conditions of data set [12]: 90 day toxicity study, mainly effects on hematological parameters; cited from earlier work.
Where [13] appears, read: rats ♂, 17.5 mg/kg bw, mean (min–max).
Where [14] appears, read: rats ♀ and ♂, 14 mg/kg bw, mean.
Where [15] appears, read: rats ♀ and ♂, 135 mg/kg bw, mean.
[16] abbreviates: rats ♀, 14 mg/kg bw, mean (min–max).
Setting [17] is: rats ♀, 135 mg/kg bw, mean (min–max).
Setting [18] is: rats ♂, 14 mg/kg bw, mean (min–max).
Where [19] appears, read: rats ♂, 135 mg/kg bw, mean (min–max).
The mark [20] stands for this setting: humans ♀ and ♂, 1.4 mg/kg bw, mean.
Where [21] appears, read: humans ♀ and ♂, 14 mg/kg bw, mean.
[22] abbreviates: humans ♀, 1.4 mg/kg bw, mean (min–max).
Setting [23] is: humans ♀, 14 mg/kg bw, mean (min–max).
Setting [24] is: humans ♂, 1.4 mg/kg bw, mean (min–max).
[25] abbreviates: humans ♂, 14 mg/kg bw, mean (min–max).

As for `CCCCCCCCCCCCOC(=O)c1cc(O)c(O)c(O)c1` [dodecyl gallate], in [1], the “oral equivalent dose related to TPO inhibition” value was found to be 69 mg/kg bw; the “margin between human exposure and oral equivalent dose related to TPO inhibition” value was at least 122 fold. Further, in data set [2], the “conversion in incubations with and without the cofactor mix” value is reported as “to some extent”; the “measured concentration at t = 0 lower than the added 1 μM” value is “up to 2 fold”; the “CLint,u” value is 8800 μL/min/mg of S9 protein; the “CLintapp (apparent in vitro intrinsic clearance)” value (from here on “CLintapp”) is recorded as 88 μL/min/mg of S9 protein. The “activity in the TPO assay” value in data set [3] was “active”. Further, the “reported in vivo Cmax” value in data set [4] (rats, 10 mg/kg bw oral, blood collected only 10 min after dosing) is “no detectable plasma concentrations”. In [5], the “CLint,u” value is given as 11 600 μL/min/mg of S9 protein and the “CLintapp” value is reported as 232 μL/min/mg of S9 protein. Moreover, the “number of ToxCast assays in which the compound is active out of assays tested” value (“number of ToxCast assays” for short) in [6] is recorded as 210 out of 441. In data set [7], the pKa is on record as 7.93 (A) and the logP was 6.37.
Turning to `COC(=O)c1ccc(O)cc1` [methylparaben], in data set [2], the “conversion in incubations with and without the cofactor mix” value is “occurs both in the presence and absence of the cofactor mix”; the “CLint,u” value is listed as 121 μL/min/mg of S9 protein; the “CLintapp” value is listed as 102 μL/min/mg of S9 protein. For the same compound, in data set [5], the “CLint,u” value was 642 μL/min/mg of S9 protein and the “CLintapp” value is on record as 629 μL/min/mg of S9 protein. For the same compound, in data set [5] (rat vs human liver S9), the “faster conversion (CLint) by RLS9 compared with HLS9” value turned out to be 6 fold. Further, the “number of ToxCast assays” value in [6] is given as 24 out of 886. Further, in data set [8], the “reported in vivo Cmax” value was “No parent compound was detected”.
In the case of `CCCCCCCCOC(=O)c1cc(O)c(O)c(O)c1` [octyl gallate], in data set [1], the “oral equivalent dose related to TPO inhibition” value came to 99 mg/kg bw; the “margin between human exposure and oral equivalent dose related to TPO inhibition” value is reported as “at least 106 fold”. In data set [2], the “conversion in incubations with and without the cofactor mix” value is reported as “to some extent”; the “measured concentration at t = 0 lower than the added 1 μM” value is “up to 2 fold”; the “CLint,u” value is on record as 3999 μL/min/mg of S9 protein; the “CLintapp” value was 3119 μL/min/mg of S9 protein. For the same compound, in data set [3], the “activity in the TPO assay” value was “active”. The “reported in vivo Cmax” value in data set [4] (rats ♀, 17.5 mg/kg bw, mean) is recorded as “♀ 20 (range NR)^a ng/mL”. Besides, in [4] (setting [13]), the “reported in vivo AUC” value is recorded as “♂ 3.7 (1.4–7.8) n = 6 ng*hr/mL” and the “reported in vivo Cmax” value is recorded as “♂ 19 (9–41) n = 6 ng/mL”. Also, in data set [5], the “CLint,u” value is listed as 4695 μL/min/mg of S9 protein and the “CLintapp” value is reported as 3662 μL/min/mg of S9 protein. The “number of ToxCast assays” value in data set [6] is reported as 355 out of 982. In data set [7], the pKa is on record as 7.94 (A) and the logP was 4.33.
Take `CCCOC(=O)c1cc(O)c(O)c(O)c1` [propyl gallate]: the “oral equivalent dose related to TPO inhibition” value in data set [1] amounted to 6.3 mg/kg bw; in data set [9], 7.9 mg/kg bw. Also, the “CLint,u” value was 437 μL/min/mg of S9 protein in data set [2] and 835 μL/min/mg of S9 protein in [5]. The entries for the “CLintapp” value in data set [2] and in data set [5] were 428 μL/min/mg of S9 protein and 818 μL/min/mg of S9 protein, respectively. In addition, the AC50 in data set [3] (read-out: AC50 in the NCCT_TPO_AUR_dn assay, TPO inhibition) is 0.58 µM. In addition, the “reported in vivo AUC” value in [4] (setting [14]) is “♀ and ♂ 95 n = 12 ng*hr/mL”; in [4] (setting [15]) it was “♀ and ♂ 1624 n = 16 ng*hr/mL”; in data set [4] (setting [16]), “♀ 66 (39–100) n = 6 ng*hr/mL”; in data set [4] (setting [17]), “♀ 1164 (321–3451) n = 8 ng*hr/mL”; in [4] (setting [18]) it was “♂ 123 (62–217) n = 6 ng*hr/mL”; in data set [4] (setting [19]), “♂ 2085 (660–4119) n = 8 ng*hr/mL”. Also, the “reported in vivo AUC” value in [10] (setting [20]) was “♀ and ♂ 21 n = 11 ng*hr/mL”; in data set [10] (setting [21]), “♀ and ♂ 346 n = 10 ng*hr/mL”; in data set [10] (setting [22]) it was “♀ 19 (13-21) n = 4 ng*hr/mL”; in data set [10] (setting [23]), “♀ 290 (25–425) n = 5 ng*hr/mL”; in data set [10] (setting [24]), “♂ 21 (9.4–42) n = 7 ng*hr/mL”; in data set [10] (setting [25]) it was “♂ 402 (290–587) n = 5 ng*hr/mL”. The “reported in vivo Cmax” value is “♀ and ♂ 192 n = 12 ng/mL” in [4] (setting [14]); “♀ and ♂ 4753 n = 16 ng/mL” in data set [4] (setting [15]); “♀ 238 (68–462) n = 6 ng/mL” in [4] (setting [16]); “♀ 4246 (884–12 825) n = 8 ng/mL” in [4] (setting [17]); “♂ 145 (67–334) n = 6 ng/mL” in data set [4] (setting [18]); “♂ 5260 (1635–11085) n = 8 ng/mL” in [4] (setting [19]). Further, the “reported in vivo Cmax” value in data set [10] (setting [20]) was “♀ and ♂ 13 n = 11 ng/mL”; in [10] (setting [21]), “♀ and ♂ 152 n = 10 ng/mL”; in data set [10] (setting [22]), “♀ 12 (11–14) n = 4 ng/mL”; in data set [10] (setting [23]) it was “♀ 150 (10–240) n = 5 ng/mL”; in data set [10] (setting [24]), “♂ 14 (4–33) n = 7 ng/mL”; in data set [10] (setting [25]), “♂ 155 (84–208) n = 5 ng/mL”. In addition, the no-observed-adverse-effect level (NOAEL) is given as 300 mg/kg bw/day in data set [11] and 150 mg/kg bw/day in data set [12]. The “number of ToxCast assays” value in data set [6] is on record as 131 out of 888. Moreover, in data set [7], the logP is reported as 1.87.
